From patent US9932340B2, “Substituted indoles” (AbbVie Inc., priority 2014, dated 2018) come the findings set out here.

In general, IC50 refers to the concentration needed to halve the response being measured.

A value given as a limit tells only on which side of the number the result lay.

Sequence of SUV420H1 enzyme (Q4FZB7 whole entry): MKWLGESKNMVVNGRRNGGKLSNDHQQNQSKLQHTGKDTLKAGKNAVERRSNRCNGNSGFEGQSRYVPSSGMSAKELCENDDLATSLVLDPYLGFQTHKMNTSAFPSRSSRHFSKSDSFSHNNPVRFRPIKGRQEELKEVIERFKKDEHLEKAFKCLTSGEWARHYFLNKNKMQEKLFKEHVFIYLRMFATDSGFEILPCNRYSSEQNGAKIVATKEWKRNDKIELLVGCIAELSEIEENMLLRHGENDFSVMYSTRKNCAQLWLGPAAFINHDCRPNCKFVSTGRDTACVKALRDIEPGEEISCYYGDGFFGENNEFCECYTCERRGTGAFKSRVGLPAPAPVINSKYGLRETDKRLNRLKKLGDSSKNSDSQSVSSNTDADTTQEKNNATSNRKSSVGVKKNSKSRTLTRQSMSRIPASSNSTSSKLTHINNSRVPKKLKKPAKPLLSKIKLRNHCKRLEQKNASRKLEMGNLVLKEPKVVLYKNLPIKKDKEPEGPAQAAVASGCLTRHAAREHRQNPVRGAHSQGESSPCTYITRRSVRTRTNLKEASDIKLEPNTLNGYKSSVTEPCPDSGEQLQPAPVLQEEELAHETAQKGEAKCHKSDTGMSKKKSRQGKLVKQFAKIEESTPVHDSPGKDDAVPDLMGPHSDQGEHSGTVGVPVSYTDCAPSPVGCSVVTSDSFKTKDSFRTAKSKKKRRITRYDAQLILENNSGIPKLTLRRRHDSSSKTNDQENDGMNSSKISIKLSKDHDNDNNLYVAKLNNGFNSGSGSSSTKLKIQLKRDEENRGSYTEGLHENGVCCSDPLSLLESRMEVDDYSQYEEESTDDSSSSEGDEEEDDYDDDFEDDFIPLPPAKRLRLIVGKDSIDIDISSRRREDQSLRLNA

This assay addresses SUV420H1 enzyme (Homo sapiens, UniProt Q4FZB7). The assay is described as follows: TR-FRET SAH SUV420H1 enzyme inhibition assay. The format is biochemical. The note with it: Histone Peptide H4(8-30)me1 and SAM, overnight at room temp, TR-FRET detection of SAH, read-out: TR-FRET SAH_SUV420H1 IC50. The protocol:
Test compounds were dispensed by a Labcyte Echo in 384-well low volume assay plates with 3-fold serial dilutions from 50 μM to 0.00075 μM. 5 μL of SUV420H1 enzyme (Abbvie) at 90 nM was added to all wells except the no enzyme control wells, and incubated for 30 minutes at room temp before 5 μL of Histone Peptide H4(8-30)me1 (Anaspec) at 5 nM and SAM at 4 nM was added to all wells. The plates were incubated in a humidified chamber overnight at room temp and then 10 μL of the detection reagent that contained RIPA buffer (50 mM Tris-HCl, pH 8.0, 150 mM sodium chloride, 1.0% Igepal CA-630 (NP-40), 0.5% sodium deoxycholate and 0.1% sodium dodecyl sulfate) (Sigma) with 2 nM of Terbium chelate anti S-adenosyl-L-homocysteine (SAH) (Abbvie) antibody and Oregon Green labeled SAH at 4 nM was added. The plates were further incubated for 4 hours at room temperature. The plates were read in a Perkin Elmer Envision using a TR-FRET protocol with Excitation set at 335 nm and Emission at 520 and 495 nm. To generate dose response curves the data is normalized to percent inhibition by setting the average of the plus and minus enzyme control wells to 0% and 100% inhibition respectively. The IC50 values for the compounds are generated by fitting the normalized data with Accelrys Assay Explorer 3.3 to a sigmoidal curve model using […] regression, Y=(100*x^n)/(K^n+x^n), where Y is the measured response, x is the compound concentration, n is the Hill Slope and K is the IC50 and the lower and higher asymptotes are constrained to 0 and 100 respectively.
For the compound `CC(C)c1ccccc1C(=O)NCc1cc2cc(Cl)cc(Cn3cnc4c(N)ncnc43)c2[nH]1` [Example 314, N-({7-[(6-amino-9H-purin-9-yl)methyl]-5-chloro-1H-indol-2-yl}methyl)-2-(propan-2-yl)benzamide], the IC50 is 1930 nM.

Take `Nc1ncnc2c1ncn2Cc1cccc2c(Br)c[nH]c12` [Example 1, 9-[(3-bromo-1H-indol-7-yl)methyl]-9H-purin-6-amine]: the IC50 was greater than 50000 nM.

On to `CN(C)c1cccc(C(=O)NCc2cc3cc(Cl)cc(Cn4cnc5c(N)ncnc54)c3[nH]2)c1` [Example 309, N-({7-[(6-amino-9H-purin-9-yl)methyl]-5-chloro-1H-indol-2-yl}methyl)-3-(dimethylamino)benzamide], for which the IC50 is 7310 nM.

With `Cc1noc2ncc(C(=O)NCc3cc4cc(Cl)cc(Cn5cnc6c(N)ncnc65)c4[nH]3)cc12` [Example 351, N-({7-[(6-amino-9H-purin-9-yl)methyl]-5-chloro-1H-indol-2-yl}methyl)-3-methyl[1,2]oxazolo[5,4-b]pyridine-5-carboxamide], the IC50 turned out to be 393 nM.

On to `CCNc1ccccc1C(=O)NCc1cc2cc(Cl)cc(Cn3cnc4c(N)ncnc43)c2[nH]1` [Example 310, N-({7-[(6-amino-9H-purin-9-yl)methyl]-5-chloro-1H-indol-2-yl}methyl)-2-(ethylamino)benzamide], for which the IC50 was 13200 nM.

`Nc1ncnc2c1ncn2Cc1cc(Cl)cc2cc(CNC(=O)c3cnc4[nH]ccc4c3)[nH]c12` [Example 347, N-({7-[(6-amino-9H-purin-9-yl)methyl]-5-chloro-1H-indol-2-yl}methyl)-1H-pyrrolo[2,3-b]pyridine-5-carboxamide]: the IC50 was 29100 nM.

In the case of `CC(=O)NCc1cc2cc(Cl)cc(Cn3cnc4c(N)ncnc43)c2[nH]1` [Example 92, N-({7-[(6-amino-9H-purin-9-yl)methyl]-5-chloro-1H-indol-2-yl}methyl)acetamide], the IC50 is greater than 50000 nM.

As to `Cc1ncsc1C(=O)NCc1cc2cc(Cl)cc(Cn3cnc4c(N)ncnc43)c2[nH]1` [Example 148, N-({7-[(6-amino-9H-purin-9-yl)methyl]-5-chloro-1H-indol-2-yl}methyl)-4-methyl-1,3-thiazole-5-carboxamide], the IC50 came out at 1030 nM.

Take `CC(=O)N1CC=C(c2cc(Cn3cnc4c(N)ncnc43)c3[nH]c(CNC(=O)c4ccc(C#N)cc4Cl)cc3c2)CC1` [Example 279, N-({5-(1-acetyl-1,2,3,6-tetrahydropyridin-4-yl)-7-[(6-amino-9H-purin-9-yl)methyl]-1H-indol-2-yl}methyl)-2-chloro-4-cyanobenzamide]: the half-inhibitory concentration (IC50) came to 49.3 nM.

Consider `Nc1ncnc2c1ncn2Cc1cc(Cl)cc2cc(CNCc3cc(F)cc(Cl)c3)[nH]c12` [Example 216, 9-[(5-chloro-2-{[(3-chloro-5-fluorobenzyl)amino]methyl}-1H-indol-7-yl)methyl]-9H-purin-6-amine], for which the IC50 stood at 2470 nM.

As for `Nc1ncnc2c1ncn2Cc1cc(Cl)cc2cc(CNC(=O)c3ccc4[nH]nnc4c3)[nH]c12` [Example 331, N-({7-[(6-amino-9H-purin-9-yl)methyl]-5-chloro-1H-indol-2-yl}methyl)-1H-benzotriazole-6-carboxamide], the IC50 was found to be 2580 nM.

Consider `Cc1nocc1C(=O)NCc1cc2cc(Cl)cc(Cn3cnc4c(N)ncnc43)c2[nH]1` [Example 150, N-({7-[(6-amino-9H-purin-9-yl)methyl]-5-chloro-1H-indol-2-yl}methyl)-3-methyl-1,2-oxazole-4-carboxamide], for which the IC50 stood at 382 nM.

As to `Nc1ncnc2c1ncn2Cc1cc(Cl)cc2cc(CNC(=O)C3CCOCC3)[nH]c12` [Example 126, N-({7-[(6-amino-9H-purin-9-yl)methyl]-5-chloro-1H-indol-2-yl}methyl)tetrahydro-2H-pyran-4-carboxamide], the IC50 came to 2230 nM.

For `Nc1ncnc2c1ncn2Cc1cc(Cl)cc2cc(CNC(=O)C3CC3)[nH]c12` [Example 107, N-({7-[(6-amino-9H-purin-9-yl)methyl]-5-chloro-1H-indol-2-yl}methyl)cyclopropanecarboxamide], the IC50 is 10900 nM.
